Reference: US20210255193A1, “LYSINE REACTIVE PROBES AND USES THEREOF” (The Scripps Research Institute, priority 2017, published 2021)

Legend:
Experiment in all cases: competitive isoTOP-ABPP
Format in all cases: binding
[1] = biological target: T1, PSME3 Proteasome activator complex subunit 3 (Homo sapiens, UniProt P61289)
T1 construct: isoTOP-ABPP experiments performed in cell lysates (in vitro); endogenous in cells; host or cells: soluble proteome of human cancer cell lines (MDA-MB-231, Ramos, Jurkat)
Description: (§1) In vitro covalent fragment treatment for isoTOP-ABPP. All compounds were made up as solutions in DMSO (100×) and were used at a final concentration of 50 μM for activated esters and 100 μM for guanidinylating agents. For each profiling sample, 0.5 ml of lysate was treated with 5 μl of the 100× compound stock solution or 5 μl of DMSO. Samples were treated with activated esters for
(§2) STP-alkyne labeling and click chemistry. For concentration-dependent reactivity measurements by isoTOP-ABPP, 0.5 ml proteome aliquots were treated at ambient temperature with 1 mM STP-alkyne 1 (5 μl of 100 mM stock in DMSO) and 0.1 mM STP alkyne 1 (5 μl of 10 mM stock in DMSO), respectively. For competitive isoTOP-ABPP, after in vitro fragment treatment (detailed above), the samples were labeled for 1 h at ambient temperature with 0.1 mM STP-alkyne 1 (5 μl of 10 mM stock in DMSO). Samples were conjugated by copper-mediated azide-alkyne cycloaddition (CuAAC) to either the light (1 mM STP-alkyne or fragment treated) or heavy (0.1 mM STP-alkyne or DMSO treated) TEV tags (10 μl of 5 mM stocks in DMSO, final concentration=100 μM) using tris(2-carboxyethyl)phosphine hydrochloride
(§3) R value calculation and processing. The ratios of light and heavy MS1 peaks for each unique peptide were quantified with a CIMAGE software using default parameters (3 MS1 acquisitions per peak and signal to noise threshold set to 2.5). For reactivity measurements by isoTOP-ABPP, the R value was calculated from the ratio of MS1 peak areas, comparing the 1 mM STP alkyne sample (light TEV tag) with the 0.1 mM STP alkyne sample (heavy TEV tag). For competitive isoTOP-ABPP, the R value was calculated from the ratio of MS1 peak areas, comparing the DMSO treated sample (heavy TEV tag) with the compound treated sample (light TEV tag). […] Ratios for unique peptide entries are calculated for each experiment; overlapping peptides with the same modified lysine (for example, different charge states, MudPIT chromatographic steps or tryptic termini) are grouped together and the median ratio is reported as the final ratio (R). The peptide ratios reported by CIMAGE were further filtered to ensure the removal or correction of low-quality ratios in each individual data set. The quality filters applied were the following: removal of half tryptic peptides; for ratios with high standard deviations from the median (90% of the median or above) the lowest ratio was taken instead of the median; removal of peptides with R=20 and only a single MS2 event triggered during the elution of the parent ion; manual annotation of all the peptides with ratios of 20, removing any peptides with low quality elution profiles that remained after the previous curation steps (only done for competitive isoTOP-ABPP).
(§4) Cross-data processing for fragment screening. For compound treated samples, biological replicates of the same condition were averaged, if the standard deviation was below 60% of the mean; otherwise, for lysines with at least one R value <4 for a particular compound, the lowest value of the ratio set was taken. For lysines, where all R values for a particular compound were ≥4, the average was reported. For peptides containing several possible modified lysines, the lysine with the highest number of quantification events was used for analysis and the remaining, redundant peptides were reported as alternative modification sites. Peptides included in the aggregate dataset (those used for further bioinformatics and statistical analyses) were required to have been quantified in 2 experiments for competitive isoTOP-ABPP. Lysines were categorized as liganded, if they had at least one ratio R≥4 (hit fragments). For liganded lysines with R=20 for all liganding events, lysines were required to have been quantified with R=20 in two separate experiments and were further required to have been quantified with R<20 in one additional experiment.

[2] = biological target: T2, HK1 Hexokinase-1 (Homo sapiens, UniProt P19367)
T2 construct: isoTOP-ABPP experiments performed in cell lysates (in vitro); endogenous in cells; host or cells: soluble proteome of human cancer cell lines (MDA-MB-231; Ramos and Jurkat also prepared)
T2 sequence (P19367 1-917): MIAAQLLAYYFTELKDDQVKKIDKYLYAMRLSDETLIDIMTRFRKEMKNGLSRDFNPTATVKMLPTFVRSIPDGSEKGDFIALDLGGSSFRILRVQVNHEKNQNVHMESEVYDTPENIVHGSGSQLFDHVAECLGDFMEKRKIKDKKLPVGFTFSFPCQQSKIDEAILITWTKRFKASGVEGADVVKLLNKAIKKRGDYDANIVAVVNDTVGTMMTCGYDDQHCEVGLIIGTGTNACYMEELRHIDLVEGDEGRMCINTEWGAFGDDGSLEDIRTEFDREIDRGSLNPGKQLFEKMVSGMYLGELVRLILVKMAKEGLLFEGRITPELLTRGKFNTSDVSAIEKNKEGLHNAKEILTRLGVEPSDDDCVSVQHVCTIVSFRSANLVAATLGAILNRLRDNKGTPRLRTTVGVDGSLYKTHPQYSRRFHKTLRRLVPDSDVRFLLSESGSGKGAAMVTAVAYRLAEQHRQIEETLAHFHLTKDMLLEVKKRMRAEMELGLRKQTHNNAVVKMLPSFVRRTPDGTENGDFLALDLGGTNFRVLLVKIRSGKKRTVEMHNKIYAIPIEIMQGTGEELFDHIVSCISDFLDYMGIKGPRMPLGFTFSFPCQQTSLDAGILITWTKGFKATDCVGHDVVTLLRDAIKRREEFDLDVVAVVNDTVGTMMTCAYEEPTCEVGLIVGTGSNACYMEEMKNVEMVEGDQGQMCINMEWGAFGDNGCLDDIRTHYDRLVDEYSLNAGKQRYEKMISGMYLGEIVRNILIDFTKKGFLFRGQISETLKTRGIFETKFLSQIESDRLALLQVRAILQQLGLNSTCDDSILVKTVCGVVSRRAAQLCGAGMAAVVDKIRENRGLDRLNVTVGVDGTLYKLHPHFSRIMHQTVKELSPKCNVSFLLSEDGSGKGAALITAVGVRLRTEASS
Description: as §1, §2, §3, §4

[3] = biological target: T3, NUDT2 Bis(5-nucleosyl)-tetraphosphatase (Homo sapiens, UniProt P50583); conditions: for isoTOP-ABPP ratio, lysine P50583_K89: possible other lysine P50583_K87; for reaction with K89 by isoTOP-ABPP: NUDT2 K89
T3 construct: isoTOP-ABPP experiments performed in cell lysates (in vitro); endogenous in cells
Description: as §1, §2, §3, §4

T3 sequence (P50583 whole entry): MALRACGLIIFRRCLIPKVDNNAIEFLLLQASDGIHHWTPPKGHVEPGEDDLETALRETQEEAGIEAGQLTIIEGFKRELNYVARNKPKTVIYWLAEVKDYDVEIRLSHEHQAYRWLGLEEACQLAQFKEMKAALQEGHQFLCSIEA
T1 sequence (P61289 whole entry, one chain of several): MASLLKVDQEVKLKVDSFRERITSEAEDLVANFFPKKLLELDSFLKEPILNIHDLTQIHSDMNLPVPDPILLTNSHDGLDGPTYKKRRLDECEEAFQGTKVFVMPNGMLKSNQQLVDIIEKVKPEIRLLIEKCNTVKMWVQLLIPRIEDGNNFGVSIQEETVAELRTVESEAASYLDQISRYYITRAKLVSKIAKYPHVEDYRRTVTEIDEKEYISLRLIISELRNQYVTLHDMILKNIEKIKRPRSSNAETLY

SMILES	isoTOP-ABPP ratio, lysine P61289_K12 ([1]; 100 uM_231_sol_in vitro)	isoTOP-ABPP ratio, lysine P61289_K237 ([1]; 100 uM_231_sol_in vitro)	isoTOP-ABPP ratio, lysine P19367_K510 ([2]; 100 uM_231_sol_in vitro)	isoTOP-ABPP ratio, lysine P50583_K89 ([3]; 100 uM_231_sol_in vitro)	reaction with K89 by isoTOP-ABPP [3]	isoTOP-ABPP ratio, lysine P61289_K12 ([1]; 50 uM_231_sol_in vitro)	isoTOP-ABPP ratio, lysine P61289_K237 ([1]; 50 uM_231_sol_in vitro)	isoTOP-ABPP ratio, lysine P19367_K510 ([2]; 50 uM_231_sol_in vitro)	isoTOP-ABPP ratio, lysine P50583_K89 ([3]; 50 uM_231_sol_in vitro)
O=C(CCc1ccc2c(c1)OCO2)Oc1ccc([N+](=O)[O-])cc1[N+](=O)[O-] [fragment 45, 2,4-Dinitrophenyl 3-(benzo[d][1,3]dioxol-5-yl)propanoate]						2.0	1.6	5.3	1.7
O=C(ON1C(=O)CCC1=O)c1cc(C(F)(F)F)cc(C(F)(F)F)c1 [fragment 46, 3,5-Bis(trifluoromethyl)benzoic acid NHS ester]						0.7	0.9	1.0	1.1
O=C(Oc1c(F)c(F)c(C(F)(F)F)c(F)c1F)c1cc(C(F)(F)F)cc(C(F)(F)F)c1 [fragment 47, 2,3,5,6-Tetrafluoro-4-(trifluoromethyl)phenyl 3,5-bis(trifluoromethyl)benzoate]						1.1	0.9	0.9	1.0
COC(=O)NC(=NC(=O)OCC1c2ccccc2-c2ccccc21)n1cccn1 [fragment 49, N-Methoxycarbonyl-N′-9-fluorenylmethoxycarbonyl-pyrazole-1-carboxamidine]	0.8	0.8	1.1	20.0	preferentially reacting				
CC(C)(C)OC(=O)N=C(NC(=O)OC(C)(C)C)n1cccn1 [fragment 50, reference compound]	0.7	0.9	1.0	20.0	preferentially reacting				
NC(=O)c1cc(C(F)(F)F)cc(C(F)(F)F)c1 [fragment 51, reference compound]							0.7	1.0	0.9
